pIC50: −log10 of the molar value.
Columns and labels:
[1] = system: phospho-Serine 318 ATG13 (pATG13) in HCT-116 cells; assay: pATG13 levels of mutant KRas HCT-116 cells after treatment with ULK inhibitors in combination with trametinib (ELISA); assay type: cell-based, human
Method: Example 179. pATG13 Levels of Mutant KRas HCT-116 Cells after Treatment with ULK Inhibitors in Combination with Trametinib
HCT-116 human colon cancer cells (10000 cells/well) were added to a 384-well tissue-culture treated plate in 50 μL of pre-warmed DMEM medium supplemented with 10% characterized fetal bovine serum (Invitrogen, Carlsbad, Calif.), 100 units/mL penicillin G, and 100 μg/mL streptomycin and allowed to grow overnight at 37° C., 5% CO2, and 95% humidity. The following day, 10 μL of media containing trametinib or DMSO as a control was added to wells. The final concentration of trametinib in wells was 250 nM. A dose response of a test compound (0.6 μL per well) was added. DMSO (0.6 μL) was added to control wells. The plate was briefly shaken to mix wells and then incubated at 37° C. overnight. The next day, the media was aspirated and cells were washed with Dulbecco's Phosphate Buffered Saline (Gibco). Cells were lysed using MPER lysis buffer (Pierce, Rockford, Ill.) containing Halt Phosphatase and Protease Inhibitors (Pierce, Rockford, Ill.) and Phosphatase inhibitor cocktail 2 (Sigma, St. Louis, Mo.) at 4° C. for 10 minutes with shaking.
(§1) Cellular levels of phospho-Serine 318 ATG13 (pATG13) were measured via an ELISA method. Total ATG13 Antibody (Cell Signaling Cat #13273) was used to coat the wells. The plate was incubated at 4° C. overnight and washed with ELISA wash buffer (Biolegend Cat #421601). The wells were then blocked with assay diluent (Biolegend Cat #421203) for 1 hour at room temperature. Plate wells were washed with ELISA wash buffer. Cell lysate was added to wells and incubated at room temperature for 2 hours. Plate wells were washed with ELISA wash buffer. Biotinylated pS318-ATG13 antibody (Rockland Immunochemicals Cat #600-401-C49) was diluted in assay diluent and added to each well and incubated at room temperature for 1 hour. Plate wells were washed with ELISA wash buffer. Streptavidin linked to horseradish peroxidase (Thermo Fisher Cat #21140) was diluted in assay diluent and added to each well and incubated at room temperature for 1 hour. Plate wells were washed with ELISA wash buffer. High sensitivity TMB substrate (Biolegend Cat #421101) was added to each well and incubated at room temperature for 20 minutes. The reaction was stopped with 2N Sulfuric Acid. The plate was analyzed at on a plate reader measuring absorbance at 450 nm and 540 nm (background). Signal was calculated by first subtracting the background absorbance at 540 nm from the absorbance at 450 nm for each well. Next, the background corrected absorbance at 450 nm from blank wells was subtracted from test wells. Data was compared to control wells to determine % ATG13 phosphorylation. GraphPad Prism was used to calculate IC50 values.

ULK1 kinase = target: T1, ULK1 kinase (Homo sapiens, UniProt O75385); assay: Biochemical assay for ULK1.2 (coupled pyruvate kinase/lactate dehydrogenase assay); conditions: 19 nM ULK1 (Eurofins), myelin basic protein, 1 mM ATP
T1 construct: purchased Eurofins 14-959
T1 sequence (O75385 with tags, fused parts or gaps): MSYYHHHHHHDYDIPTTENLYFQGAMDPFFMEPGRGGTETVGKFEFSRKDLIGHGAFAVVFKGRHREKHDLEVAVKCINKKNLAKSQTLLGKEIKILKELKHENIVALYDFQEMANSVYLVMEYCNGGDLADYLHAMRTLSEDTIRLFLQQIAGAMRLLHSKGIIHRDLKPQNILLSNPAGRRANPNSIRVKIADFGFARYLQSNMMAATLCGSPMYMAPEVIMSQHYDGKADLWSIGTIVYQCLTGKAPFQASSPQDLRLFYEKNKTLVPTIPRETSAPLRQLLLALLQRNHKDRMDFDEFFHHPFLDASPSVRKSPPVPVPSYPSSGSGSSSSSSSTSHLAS
Outline: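 NADH-coupled PK/LDH read-out at 340 nm, run with 19 nM ULK1, 0.25 mg/mL myelin basic protein and 1 mM ATP. Buffer was 100 mM Tris pH 7.5 with 15 mM MgCl2 and 1% DMSO final. Monitoring was continuous for 6 hours at 30° C; rates from the 2-3 h window were converted to percent inhibition and fitted to a four-parameter curve for IC50.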

[2] = system: phospho-Serine 318 ATG13 (pATG13) in T24 cells; assay: pATG13 levels of mutant HRas T24 cells after treatment with ULK inhibitors in combination with trametinib (ELISA); assay type: cell-based, human; conditions: with 250 nM trametinib
Method: Example 181. pATG13 Levels of Mutant HRas T24 Cells after Treatment with ULK Inhibitors in Combination with Trametinib
T24 human urinary bladder cancer cells (25000 cells/well) were added to a 96-well tissue-culture treated plate in 100 μL of pre-warmed DMEM medium supplemented with 10% characterized fetal bovine serum (Invitrogen, Carlsbad, Calif.), 100 units/mL penicillin G, and 100 μg/mL streptomycin and allowed to grow overnight at 37° C., 5% CO2, and 95% humidity. The following day, 100 μL of media containing trametinib or DMSO as a control was added to wells. The final concentration of trametinib in wells was 250 nM. A dose response of a test compound (0.5 μL per well) was added. DMSO (0.5 μL) was added to control wells. The plate was briefly shaken to mix wells and then incubated at 37° C. overnight. The next day, the media was aspirated and cells were washed with Dulbecco's Phosphate Buffered Saline (Gibco). Cells were lysed using MPER lysis buffer (Pierce, Rockford, Ill.) containing Halt Phosphatase and Protease Inhibitors (Pierce, Rockford, Ill.) and Phosphatase inhibitor cocktail 2 (Sigma, St. Louis, Mo.) at 4° C. for 10 minutes with shaking.
as §1

| SMILES | pIC50 [1] | pIC50 (ULK1 kinase) | pIC50 [2] |
| --- | --- | --- | --- |
| CC(C)N1CCC(n2cc(Nc3ncc(C(F)(F)F)c(NCCCN4CCCCC4=O)n3)cn2)CC1 [Example 6] | 6.52 to 7.00 | 7.60 to 9.00 | – |
| Cc1nn(C2CCN(C)CC2)cc1Nc1ncc(C(F)(F)F)c(NCCCN2CCCCC2=O)n1 [Example 8] | – | 7.60 to 9.00 | 7.00 to 8.00 |
| Cc1nn(C2CCN(C(C)C)CC2)cc1Nc1ncc(C(F)(F)F)c(NCCCN2CCCCC2=O)n1 [Example 15] | 7.00 to 8.00 | 7.00 to 7.60 | 7.00 to 8.00 |
| Cc1nn([C@@H]2CCN(C)C2)cc1Nc1ncc(C(F)(F)F)c(NCCCN2CCCCC2=O)n1 [Example 18] | – | 7.60 to 9.00 | 6.52 to 7.00 |
| Cc1nn(CCN(C)C)cc1Nc1ncc(C(F)(F)F)c(NCCCN2CCCCC2=O)n1 [Example 21] | 6.52 to 7.00 | 7.00 to 7.60 | – |
| CN(C)CCn1cc(Nc2ncc(C(F)(F)F)c(NCCCN3CCCCC3=O)n2)cn1 [Example 32] | 7.00 to 8.00 | 7.00 to 7.60 | 7.00 to 8.00 |
| CCc1nn(C2CCN(C)CC2)cc1Nc1ncc(Br)c(NCCCN2CCCCC2=O)n1 [Example 53] | 7.00 to 8.00 | 7.00 to 7.60 | – |
| Cc1nn([C@H]2CCN(C)C2)cc1Nc1ncc(Br)c(NCCCN2CCCCC2=O)n1 [Example 61] | 7.00 to 8.00 | 7.00 to 7.60 | – |
| CCN1CC[C@H](n2cc(Nc3ncc(Br)c(NCCCN4CCCCC4=O)n3)c(C)n2)C1 [Example 64] | – | 7.00 to 7.60 | – |
| Cc1nn(C2CCN(C(C)C)CC2)cc1Nc1ncc(C(F)(F)F)c(NCCCN2CCCOC2=O)n1 [Example 68] | 7.00 to 8.00 | 7.00 to 7.60 | 6.52 to 7.00 |
| Cc1nn(C2CCN(C)CC2)cc1Nc1ncc(C(F)(F)F)c(NCCCN2CCCCCC2=O)n1 [Example 79] | 7.00 to 8.00 | 7.60 to 9.00 | – |
| Cc1nn(CCCN2CCOCC2)cc1Nc1ncc(C(F)(F)F)c(NCCCN2CCCCCC2=O)n1 [Example 100] | 6.52 to 7.00 | 7.00 to 7.60 | 6.52 to 7.00 |
| Cc1nn(C2CCN(C)CC2)cc1Nc1ncc(C(F)(F)F)c(NCCCN2CCCOCC2=O)n1 [Example 102] | 7.00 to 8.00 | 7.60 to 9.00 | – |
| Cc1nn(C2CCN(C)CC2)cc1Nc1ncc(Cl)c(NCCCN2CCCOCC2=O)n1 [Example 105] | 6.52 to 7.00 | 7.00 to 7.60 | 6.52 to 7.00 |
| Cc1nn([C@@H]2CCN(C)C2)cc1Nc1ncc(C(F)(F)F)c(NCCCN2CCCOCC2=O)n1 [Example 106] | 7.00 to 8.00 | 7.00 to 7.60 | – |
| CCN1CCC(n2cc(Nc3ncc(C(F)(F)F)c(NCCCN4CCCOCC4=O)n3)c(C)n2)CC1 [Example 107] | 7.00 to 8.00 | 7.00 to 7.60 | – |
| Cc1nn(C2CCN(C(C)C)CC2)cc1Nc1ncc(C(F)(F)F)c(NCCCN2CCCOCC2=O)n1 [Example 108] | 6.52 to 7.00 | 7.00 to 7.60 | – |
| Cc1nn(C2CCN(C)CC2)cc1Nc1ncc(C(F)(F)F)c(NCCCN2CCOCCC2=O)n1 [Example 127] | 6.52 to 7.00 | 7.60 to 9.00 | 7.00 to 8.00 |
| CCN1CCC(n2cc(Nc3ncc(C(F)(F)F)c(NCCCN4CCOCCC4=O)n3)c(C)n2)CC1 [Example 130] | 7.00 to 8.00 | 7.00 to 7.60 | – |
| Cc1nn(C2CCN(C(C)C)CC2)cc1Nc1ncc(C(F)(F)F)c(NCCCN2CCOCCC2=O)n1 [Example 131] | 6.52 to 7.00 | 7.00 to 7.60 | – |

Reference: US11518758B2, “Heteroarylaminopyrimidine amide autophagy inhibitors and methods of use thereof” (Deciphera Pharmaceuticals, LLC, priority 2019, dated 2022)
